Target: T1, human σ1 receptor (Homo sapiens, UniProt Q99720)
T1 construct: expressed in transfected cells; host or cells: HEK-293 (membranes)
Assay: Human σ1 receptor radioligand assay
Type: binding
Conditions: transfected HEK-293 membranes, 5 nM [3H](+)-pentazocine as radioligand
Protocol: Human σ1 Receptor Radioligand Assay
To investigate binding properties of test compounds to human σ1 receptor, transfected HEK-293 membranes and [^3H](+)-pentazocine (Perkin Elmer, NET-1056), as the radioligand, were used. The assay was carried out with 7 μg of membrane suspension, 5 nM of [^3H](+)-pentazocine in either absence or presence of either buffer or 10 μM Haloperidol for total and non-specific binding, respectively. Binding buffer contained Tris-HCl 50 mM at pH 8. Plates were incubated at 37° C. for 120 minutes. After the incubation period, the reaction mix was then transferred to Multiscreen HTS, FC plates (Millipore), filtered and plates were washed 3 times with ice-cold 10 mM Tris-HCL (pH7.4). Filters were dried and counted at approximately 40% efficiency in a MicroBeta scintillation counter (Perkin-Elmer) using EcoScint liquid scintillation cocktail

T1 sequence (Q99720 whole entry): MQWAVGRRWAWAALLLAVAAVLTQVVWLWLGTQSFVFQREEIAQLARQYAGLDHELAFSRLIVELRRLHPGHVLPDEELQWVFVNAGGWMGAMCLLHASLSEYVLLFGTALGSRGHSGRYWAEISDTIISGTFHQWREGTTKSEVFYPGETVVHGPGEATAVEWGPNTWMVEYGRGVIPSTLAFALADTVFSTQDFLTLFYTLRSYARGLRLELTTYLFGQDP

Row | SMILES | Ki
1 | CCN1C[C@]2(CC[C@H](NCc3ccccc3)CC2)OC2(CC2)C1=O [Example 1, (5s,8s)-8-(benzylamino)-12-ethyl-4-oxa-12-azadispiro[2.1.5.3]tridecan-13-one] | ≥ 500 nM
2 | CCN1C[C@]2(CC[C@@H](NCc3ccccc3)CC2)OC2(CC2)C1=O [Example 2, (5r,8r)-8-(benzylamino)-12-ethyl-4-oxa-12-azadispiro[2.1.5.3]tridecan-13-one] | < 500 nM
3 | CCN1C[C@]2(CC[C@H](N(C)CCc3ccccc3)CC2)OC2(CC2)C1=O [Example 3, (5s,8s)-12-ethyl-8[methyl(2-phenylethyl)amino]-4-oxa-12-azadispiro[2.1.5.3]tridecan-13-one] | < 100 nM
4 | CCN1C[C@]2(CC[C@@H](N(C)CCc3ccccc3)CC2)OC2(CC2)C1=O [Example 4, (5r,8r)-12-ethyl-8-[methyl(2-phenylethyl)amino]-4-oxa-12-azadispiro[2.1.5.3]tridecan-13-one] | < 100 nM
5 | CCN1C[C@]2(CC[C@H](N(C)Cc3ccccc3)CC2)OC2(CC2)C1=O [Example 5, (5s,8s)-8-[benzyl(methyl)amino]-12-ethyl-4-oxa-12-azadispiro[2.1.5.3]tridecan-13-one] | < 100 nM
6 | CCN1C[C@]2(CC[C@H](NCCc3ccccc3)CC2)OC2(CC2)C1=O [Example 6, (5s,8s)-12-ethyl-8-[(2-phenylethyl)amino]-4-oxa-12-azadispiro[2.1.5.3]tridecan-13-one] | < 500 nM
7 | CCN1C[C@]2(CC[C@@H](NCCc3ccccc3)CC2)OC2(CC2)C1=O [Example 7, (5r,8r)-12-ethyl-8-[(2-phenylethyl)amino]-4-oxa-12-azadispiro[2.1.5.3]tridecan-13-one] | < 100 nM
8 | CN(Cc1ccccc1)[C@H]1CC[C@@]2(CC1)CN(c1ccccc1)C(=O)C1(CC1)O2 [Example 8, (5s,8s)-8-[benzyl(methyl)amino]-12-phenyl-4-oxa-12-azadispiro[2.1.5.3]tridecan-13-one] | < 100 nM
9 | CN(CCc1ccccc1)[C@H]1CC[C@@]2(CC1)CN(c1ccccc1)C(=O)C1(CC1)O2 [Example 9, (5s,8s)-8-(methyl(2-phenylethyl)amino]-12-phenyl-4-oxa-12-azadispiro[2.1.5.3]tridecan-13-one] | < 500 nM
10 | O=C1N(c2ccccc2)C[C@]2(CC[C@H](NCc3ccccc3)CC2)OC12CC2 [Example 10, (5s,8s)-8-(benzylamino)-12-phenyl-4-oxa-12-azadispiro[2.1.5.3]tridecan-13-one] | ≥ 500 nM
11 | O=C1N(c2ccccc2)C[C@]2(CC[C@H](NCCc3ccccc3)CC2)OC12CC2 [Example 11, (5s,8s)-12-phenyl-8-[(2-phenylethyl)amino]-4-oxa-12-azadispiro[2.1.5.3]tridecan-13-one] | < 500 nM
12 | O=C1N(c2ccccc2)C[C@]2(CC[C@@H](NCc3ccccc3)CC2)OC12CC2 [Example 12, (5r,8r)-8-(benzylamino)-12-phenyl-4-oxa-12-azadispiro[2.1.5.3]tridecan-13-one] | ≥ 500 nM
13 | O=C1N(c2ccccc2)C[C@]2(CC[C@@H](NCCc3ccccc3)CC2)OC12CC2 [Example 13] | ≥ 500 nM
14 | CN(Cc1ccccc1)[C@H]1CC[C@]2(CC1)CN(c1ccccc1)C(=O)C1(CC1)O2 [Example 14, (5r,8r)-8-[benzyl(methyl)amino]-12-phenyl-4-oxa-12-azadispiro[2.1.5.3]tridecan-13-one] | < 500 nM
15 | CN(CCc1ccccc1)[C@H]1CC[C@]2(CC1)CN(c1ccccc1)C(=O)C1(CC1)O2 [Example 15, (5r,8r)-8-[methyl(2-phenylethyl)amino]-12-phenyl-4-oxa-12-azadispiro[2.1.5.3]tridecan-13-one] | < 500 nM
16 | CCN1C[C@]2(CC[C@@H](N(C)Cc3ccccc3)CC2)OC2(CC2)C1=O [Example 16, (5r,8r)-8-[benzyl(methyl)amino]-12-ethyl-4-oxa-12-azadispiro[2.1.5.3]tridecan-13-one] | < 100 nM
17 | CCN1CC2(CC2)O[C@]2(CC[C@@H](N(C)Cc3ccccc3)CC2)C1 [Example 17, (5s,8s)-N-benzyl-12-ethyl-N-methyl-4-oxa-12-azadispiro[2.1.5.3]tridecan-8-amine] | < 500 nM
18 | CCN1CC2(CC2)O[C@]2(CC[C@H](N(C)Cc3ccccc3)CC2)C1 [Example 18, (5r,8r)-N-benzyl-12-ethyl-N-methyl-4-oxa-12-azadispiro[2.1.5.3]tridecan-8-amine] | < 500 nM
19 | CN(Cc1ccccc1)[C@H]1CC[C@@]2(CC1)CN(c1ccccc1)CC1(CC1)O2 [Example 19, (5s,8s)-N-benzyl-N-methyl-12-phenyl-4-oxa-12-azadispiro[2.1.5.3]tridecan-8-amine] | < 100 nM
20 | CN(Cc1ccccc1)[C@H]1CC[C@]2(CC1)CN(c1ccccc1)CC1(CC1)O2 [Example 20, (5r,8r)-N-benzyl-N-methyl-12-phenyl-4-oxa-12-azadispiro[2.1.53]tridecan-8-amine] | < 100 nM

Row | SMILES | Ki
21 | CCN1C[C@]2(CC[C@@H](NC)CC2)OC2(CC2)C1=O [Example 21, (5r,8r)-12-ethyl-8-(methylamino)-4-oxa-12-azadispiro[2.1.5.3]tridecan-13-one acetate] | ≥ 500 nM
22 | CCN1C[C@]2(CC[C@H](NC)CC2)OC2(CC2)C1=O [Example 22, (5s,8s)-12-ethyl-8-(methylamino)-4-oxa-12-azadispiro[2.1.5.3]tridecan-13-one acetate] | ≥ 500 nM
23 | CN[C@H]1CC[C@@]2(CC1)CN(c1ccccc1)C(=O)C1(CC1)O2 [Example 23, (5s,8s)-8-(methylamino)-12-phenyl-4-oxa-12-azadispiro[2.1.5.3]tridecan-13-one acetate] | ≥ 500 nM
24 | CN[C@H]1CC[C@]2(CC1)CN(c1ccccc1)C(=O)C1(CC1)O2 [Example 24, (5r,8r)-8-(methylamino)-12-phenyl-4-oxa-12-azadispiro[2.1.5.3]tridecan-13-one acetate] | ≥ 500 nM
25 | CN[C@H]1CC[C@@]2(CC1)CN(c1ccccc1)CC1(CC1)O2 [Example 25, (5s,8s)-N-methyl-12-phenyl-4-oxa-12-azadispiro[2.1.5.3]tridecan-8-amine acetate] | ≥ 500 nM
26 | CN[C@H]1CC[C@]2(CC1)CN(c1ccccc1)CC1(CC1)O2 [Example 26, (5r,8r)-N-rnethyl-12-phenyl-4-oxa-12-azadispiro[2.1.5.3]tridecan-8-amine acetate] | ≥ 500 nM
27 | CCN1C[C@]2(CC[C@@H](N(C)CCC(C)C)CC2)OC2(CC2)C1=O [Example 27, (5r,8r)-12-ethyl-8-[methyl(3-methylbutyl)amino]-4-oxa-12-azadispiro[2.1.5.3]tridecan-13-one] | < 500 nM
28 | CCN1C[C@]2(CC[C@H](N(C)CCC(C)C)CC2)OC2(CC2)C1=O [Example 28, (5s,8s)-12-ethyl-8-[rnethyl(3-methylbutyl)amino]-4-oxa-12-azadispiro[2.1.5.3]tridecan-13-one] | < 500 nM
29 | CC(C)CCN(C)[C@H]1CC[C@@]2(CC1)CN(c1ccccc1)C(=O)C1(CC1)O2 [Example 29, (5s,8s)-8-[methyl(3-methylbutyl)amino]-12-phenyl-4-oxa-12-azadispiro[2.1.5.3]tridecan-13-one] | < 500 nM
30 | CC(C)CCN(C)[C@H]1CC[C@]2(CC1)CN(c1ccccc1)C(=O)C1(CC1)O2 [Example 30, (5r,8r)-8-[methyl(3-methylbutyl)amino]-12-phenyl-4-oxa-12-azadispiro[2.1.5.3]tridecan-13-one] | < 100 nM
31 | CC(C)CCN(C)[C@H]1CC[C@@]2(CC1)CN(c1ccccc1)CC1(CC1)O2 [Example 31, (5s,8s)-N-methyl-N-(3-methylbutyl)-12-phenyl-4-oxa-12-azadispiro[2.1.5.3]tridecan-8-amine] | < 100 nM
32 | CC(C)CCN(C)[C@H]1CC[C@]2(CC1)CN(c1ccccc1)CC1(CC1)O2 [Example 32, (5r,8r)-N-rnethyl-N-(3-methylbutyl)-12-phenyl-4-oxa-12-azadispiro[2.1.5.3]tridecan-8-amine] | < 100 nM
33 | CCN1C[C@]2(CC[C@H](N(C)CC(C)C)CC2)OC2(CC2)C1=O [Example 33, (5s,8s)-12-ethyl-8-[methyl(2-methylpropyl)amino]-4-oxa-12-azadispiro[2.1.5.3]tridecan-13-one] | < 500 nM
34 | CN(CCc1ccccc1)[C@H]1CC[C@]2(CC1)CN(c1ccccc1)CC1(CC1)O2 [Example 34, (5r,8r)-N-methyl-12-phenyl-N-(2-phenylethyl)-4-oxa-12-azadispiro[2.1.5.3]tridecan-8-amine] | < 100 nM
35 | CCN1CC2(CC2)O[C@]2(CC[C@H](N(C)CCC(C)C)CC2)C1 [Example 35, (5r,8r)-12-ethyl-N-methyl-N-(3-methylbutyl)-4-oxa-12-azadispiro[2.1.5.3]tridecan-8-amine] | < 500 nM
36 | CCN1C[C@]2(CC[C@H](NCc3ccccc3)CC2)OCC1=O [Example 36, (6s,9s)-9-(benzylamino)-4-ethyl-1-oxa-4-azaspiro[5.5]undecan-3-one] | ≥ 500 nM
37 | CCN1C[C@]2(CC[C@@H](NCc3ccccc3)CC2)OCC1=O [Example 37, (6r,9r)-9-(benzylamino)-4-ethyl-1-oxa-4-azaspiro[5.5]undecan-3-one] | ≥ 500 nM
38 | CCN1C[C@]2(CC[C@H](N(C)CC(C)C)CC2)OCC1=O [Example 38, (6s,9s)-4-ethyl-9-(isobutyl(methyl)amino)-1-oxa-4-azaspiro[5.5]undecan-3-one] | < 500 nM
39 | CCN1C[C@]2(CC[C@H](NCc3ccccc3)CC2)OC(C)(C)C1=O [Example 39, (6s,9s)-9-(benzylamino)-4-ethyl-2,2-dimethyl-1-oxa-4-azaspiro[5.5]undecan-3-one] | ≥ 500 nM
